Test results taken from US9603364B2 (Dow AgroSciences LLC, priority 2013, dated 2017).

Key:
Test in all cases: General post-emergent herbicidal activity, foliar application
Assay type in all cases: in vivo
[1] = system: Zea mays L. (corn); conditions: 336 h, scored after 14 days, read-out: % Visual Growth Reduction ZEAMX; for plant injury at 35 g/ha: 35 g ai/ha; for plant injury at 70 g/ha: 70 g ai/ha; for plant injury at 140 g/ha: 140 g ai/ha; for plant injury at 280 g/ha: 280 g ai/ha
Method in brief: (§1)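 Injury rated visually 14 days after treatment on a 0 (none) to 100% (complete kill) scale against untreated plants; greenhouse-grown, sub-irrigated to avoid wash-off. Foliar spray in aqueous acetone/DMSO with isopropanol, crop oil concentrate and Triton X-155, at a highest rate and 2-fold serial dilutions down to 1/16×.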

[2] = system: Oryza sativa L. (rice); conditions: Oryza sativa, 336 h, scored after 14 days, read-out: % Visual Growth Reduction ORYSA; for plant injury at 35 g/ha: 35 g ai/ha; for plant injury at 70 g/ha: 70 g ai/ha; for plant injury at 140 g/ha: 140 g ai/ha; for plant injury at 280 g/ha: 280 g ai/ha
Method in brief: as §1

[3] = system: Chenopodium album L. (lambsquarters, common); conditions: for pest or weed control at 35 g/ha / pest or weed control at 70 g/ha / pest or weed control at 140 g/ha / pest or weed control at 280 g/ha: Chenopodium album, 336 h, foliar post-emergent, scored after 14 days, read-out: % Visual Growth Reduction CHEAL; for pest or weed control at 35 g/ha: 35 g ai/ha; for pest or weed control at 70 g/ha: 70 g ai/ha; for pest or weed control at 140 g/ha: 140 g ai/ha; for pest or weed control at 280 g/ha: 280 g ai/ha; for GR80 Value CHEAL: calculated by probit analysis, dose for 80% visual injury, may be extrapolated
Method in brief: (§2)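 Compounds in acetone/DMSO (97:3) were diluted into aqueous spray containing isopropyl alcohol, Atplus 411F crop oil and Triton X-155, then applied post-emergence to foliage at a top rate plus 1/2× to 1/16× serial dilutions. Injury was scored visually (0–100%) after 14 days in a sub-irrigated greenhouse versus untreated plants. GR20/GR50/GR80 were derived by probit analysis, with some GR80 values extrapolated from curve slope.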

[4] = system: Viola tricolor L. (pansy); conditions: for pest or weed control at 35 g/ha / pest or weed control at 70 g/ha / pest or weed control at 140 g/ha / pest or weed control at 280 g/ha: Viola tricolor, 336 h, foliar post-emergent, scored after 14 days, read-out: % Visual Growth Reduction VIOTR; for pest or weed control at 35 g/ha: 35 g ai/ha; for pest or weed control at 70 g/ha: 70 g ai/ha; for pest or weed control at 140 g/ha: 140 g ai/ha; for pest or weed control at 280 g/ha: 280 g ai/ha; for GR80 Value VIOTR: calculated by probit analysis, dose for 80% visual injury, may be extrapolated
Method in brief: as §2

[5] = system: Echinochloa crus-galli (L.) Beauv. (barnyardgrass); conditions: for pest or weed control at 35 g/ha / pest or weed control at 70 g/ha / pest or weed control at 140 g/ha / pest or weed control at 280 g/ha: Echinochloa crus-galli, 336 h, foliar post-emergent, scored after 14 days, read-out: % Visual Growth Reduction ECHCG; for pest or weed control at 35 g/ha: 35 g ai/ha; for pest or weed control at 70 g/ha: 70 g ai/ha; for pest or weed control at 140 g/ha: 140 g ai/ha; for pest or weed control at 280 g/ha: 280 g ai/ha; for GR80 Value ECHCG: calculated by probit analysis, dose for 80% visual injury, may be extrapolated
Method in brief: as §2

[6] = system: Euphorbia heterophylla L. (poinsettia, wild); conditions: for pest or weed control at 35 g/ha / pest or weed control at 70 g/ha / pest or weed control at 140 g/ha / pest or weed control at 280 g/ha: Euphorbia heterophylla, 336 h, foliar post-emergent, scored after 14 days, read-out: % Visual Growth Reduction EPHHL; for pest or weed control at 35 g/ha: 35 g ai/ha; for pest or weed control at 70 g/ha: 70 g ai/ha; for pest or weed control at 140 g/ha: 140 g ai/ha; for pest or weed control at 280 g/ha: 280 g ai/ha; for GR80 Value EPHHL: calculated by probit analysis, dose for 80% visual injury, may be extrapolated
Method in brief: as §2

[7] = system: Amaranthus retroflexus L. (pigweed, redroot); conditions: for pest or weed control at 35 g/ha / pest or weed control at 70 g/ha / pest or weed control at 140 g/ha / pest or weed control at 280 g/ha: Amaranthus retroflexus, 336 h, foliar post-emergent, scored after 14 days, read-out: % Visual Growth Reduction AMARE; for pest or weed control at 35 g/ha: 35 g ai/ha; for pest or weed control at 70 g/ha: 70 g ai/ha; for pest or weed control at 140 g/ha: 140 g ai/ha; for pest or weed control at 280 g/ha: 280 g ai/ha; for GR80 Value AMARE: calculated by probit analysis, dose for 80% visual injury, may be extrapolated
Method in brief: as §2

[8] = system: Helianthus annuus L. (sunflower, common); conditions: for pest or weed control at 35 g/ha / pest or weed control at 70 g/ha / pest or weed control at 140 g/ha / pest or weed control at 280 g/ha: Helianthus annuus, 336 h, foliar post-emergent, scored after 14 days, read-out: % Visual Growth Reduction HELAN; for pest or weed control at 35 g/ha: 35 g ai/ha; for pest or weed control at 70 g/ha: 70 g ai/ha; for pest or weed control at 140 g/ha: 140 g ai/ha; for pest or weed control at 280 g/ha: 280 g ai/ha; for GR80 Value HELAN: calculated by probit analysis, dose for 80% visual injury, may be extrapolated
Method in brief: as §2

For `CC(F)c1cc(N)c(Cl)c(C(=O)O)n1` (centres unmarked) [Compound F24, 4-Amino-3-chloro-6-(1-fluoroethyl)picolinic acid], the plant injury at 35 g/ha [1] was 0%, the plant injury at 70 g/ha [1] was 0% and the plant injury at 140 g/ha [1] was 0%. For the same compound, the plant injury at 280 g/ha [1] was 10%, the plant injury at 35 g/ha [2] was 0% and the plant injury at 70 g/ha [2] was 0%. It also gave a plant injury at 140 g/ha [2] of 0%, a plant injury at 280 g/ha [2] of 10% and a pest or weed control at 35 g/ha [3] of 100%. It also gave a pest or weed control at 70 g/ha [3] of 100%, a pest or weed control at 140 g/ha [3] of 100% and a pest or weed control at 280 g/ha [3] of 100%. The “GR80 Value CHEAL” value [3] was less than 17.5 g ai/ha, the pest or weed control at 35 g/ha [4] was 85% and the pest or weed control at 70 g/ha [4] was 100%. The pest or weed control at 140 g/ha [4] was 100%, the pest or weed control at 280 g/ha [4] was 100% and the “GR80 Value VIOTR” value [4] was 36.7 g ai/ha. It also gave a pest or weed control at 35 g/ha [5] of 0%, a pest or weed control at 70 g/ha [5] of 55% and a pest or weed control at 140 g/ha [5] of 80%. The pest or weed control at 280 g/ha [5] was 90%, the “GR80 Value ECHCG” value [5] was 165 g ai/ha and the pest or weed control at 35 g/ha [6] was 5%. The pest or weed control at 70 g/ha [6] was 80%, the pest or weed control at 140 g/ha [6] was 90% and the pest or weed control at 280 g/ha [6] was 95%. For the same compound, the “GR80 Value EPHHL” value [6] was 122 g ai/ha, the pest or weed control at 35 g/ha [7] was 90% and the pest or weed control at 70 g/ha [7] was 100%. The pest or weed control at 140 g/ha [7] was 100%, the pest or weed control at 280 g/ha [7] was 100% and the “GR80 Value AMARE” value [7] was 12.3 g ai/ha. The pest or weed control at 35 g/ha [8] was 50%, the pest or weed control at 70 g/ha [8] was 65% and the pest or weed control at 140 g/ha [8] was 75%. The pest or weed control at 280 g/ha [8] was 80% and the “GR80 Value HELAN” value [8] was 199 g ai/ha.
Work on `COC(=O)c1nc(CC(F)F)c(F)c(N)c1Cl` [Compound F2, methyl 4-amino-3-chloro-6-(2,2-difluoroethyl)-5-fluoropicolinate] yielded a plant injury at 140 g/ha [1] of 0%, a plant injury at 140 g/ha [2] of 0% and a pest or weed control at 140 g/ha [3] of 90%. The “GR80 Value CHEAL” value [3] was 103 g ai/ha, the pest or weed control at 140 g/ha [4] was 0% and the “GR80 Value VIOTR” value [4] was greater than 140 g ai/ha. For the same compound, the pest or weed control at 140 g/ha [5] was 0%, the “GR80 Value ECHCG” value [5] was greater than 140 g ai/ha and the pest or weed control at 140 g/ha [6] was 100%. For the same compound, the “GR80 Value EPHHL” value [6] was 114 g ai/ha, the pest or weed control at 140 g/ha [7] was 100% and the “GR80 Value AMARE” value [7] was 103 g ai/ha. The pest or weed control at 140 g/ha [8] was 80% and the “GR80 Value HELAN” value [8] was 80.8 g ai/ha.
Compound `COC(=O)c1nc(C(F)F)c(Cl)c(N)c1Cl` [Compound F7, Methyl 4-amino-3,5-dichloro-6-(difluoromethyl)picolinate] has a plant injury at 70 g/ha [1] of 0%, a plant injury at 140 g/ha [1] of 0% and a plant injury at 280 g/ha [1] of 10%. It also gave a plant injury at 70 g/ha [2] of 0%, a plant injury at 140 g/ha [2] of 0% and a plant injury at 280 g/ha [2] of 0%. It also gave a pest or weed control at 70 g/ha [3] of 0%, a pest or weed control at 140 g/ha [3] of 0% and a pest or weed control at 280 g/ha [3] of 0%. For the same compound, the “GR80 Value CHEAL” value [3] was greater than 280 g ai/ha, the pest or weed control at 70 g/ha [4] was 0% and the pest or weed control at 140 g/ha [4] was 0%. The pest or weed control at 280 g/ha [4] was 0%, the “GR80 Value VIOTR” value [4] was greater than 280 g ai/ha and the pest or weed control at 70 g/ha [5] was 0%. The pest or weed control at 140 g/ha [5] was 0%, the pest or weed control at 280 g/ha [5] was 0% and the “GR80 Value ECHCG” value [5] was greater than 280 g ai/ha. It also gave a pest or weed control at 70 g/ha [6] of 90%, a pest or weed control at 140 g/ha [6] of 100% and a pest or weed control at 280 g/ha [6] of 100%. For the same compound, the “GR80 Value EPHHL” value [6] was 17.5 g ai/ha, the pest or weed control at 70 g/ha [7] was 75% and the pest or weed control at 140 g/ha [7] was 90%. The pest or weed control at 280 g/ha [7] was 100%, the “GR80 Value AMARE” value [7] was 84.2 g ai/ha and the pest or weed control at 70 g/ha [8] was 60%. For the same compound, the pest or weed control at 140 g/ha [8] was 80%, the pest or weed control at 280 g/ha [8] was 90% and the “GR80 Value HELAN” value [8] was 145 g ai/ha.
In the case of `COC(=O)c1nc(C(C)(F)CF)cc(N)c1Cl` (centres unmarked) [Compound F11, Methyl 4-amino-3-chloro-6-(1,2-difluoropropan-2-yl)picolinate], the plant injury at 140 g/ha [1] is reported as 0%, the plant injury at 140 g/ha [2] is reported as 0% and the pest or weed control at 140 g/ha [3] is reported as 0%. For the same compound, the pest or weed control at 140 g/ha [4] was 0%, the pest or weed control at 140 g/ha [5] was 0% and the pest or weed control at 140 g/ha [6] was 10%. It also gave a pest or weed control at 140 g/ha [7] of 30% and a pest or weed control at 140 g/ha [8] of 70%.
`Nc1c(Cl)c(C(=O)O)nc(C(F)F)c1Cl` [Compound F13, 4-Amino-3,5-dichloro-6-(difluoromethyl)picolinic acid] showed a plant injury at 35 g/ha [1] of 0%, a plant injury at 70 g/ha [1] of 0% and a plant injury at 140 g/ha [1] of 5%. For the same compound, the plant injury at 35 g/ha [2] was 0%, the plant injury at 70 g/ha [2] was 0% and the plant injury at 140 g/ha [2] was 0%. It also gave a pest or weed control at 35 g/ha [3] of 90%, a pest or weed control at 70 g/ha [3] of 90% and a pest or weed control at 140 g/ha [3] of 90%. The “GR80 Value CHEAL” value [3] was 25.1 g ai/ha, the pest or weed control at 35 g/ha [4] was 0% and the pest or weed control at 70 g/ha [4] was 0%. For the same compound, the pest or weed control at 140 g/ha [4] was 0%, the “GR80 Value VIOTR” value [4] was greater than 140 g ai/ha and the pest or weed control at 35 g/ha [5] was 0%. For the same compound, the pest or weed control at 70 g/ha [5] was 0%, the pest or weed control at 140 g/ha [5] was 10% and the “GR80 Value ECHCG” value [5] was greater than 149 g ai/ha. The pest or weed control at 35 g/ha [6] was 100%, the pest or weed control at 70 g/ha [6] was 100% and the pest or weed control at 140 g/ha [6] was 100%. The “GR80 Value EPHHL” value [6] was 21.7 g ai/ha, the pest or weed control at 35 g/ha [7] was 90% and the pest or weed control at 140 g/ha [7] was 90%. For the same compound, the “GR80 Value AMARE” value [7] was 27.6 g ai/ha, the pest or weed control at 35 g/ha [8] was 60% and the pest or weed control at 70 g/ha [8] was 75%. The pest or weed control at 140 g/ha [8] was 85% and the “GR80 Value HELAN” value [8] was 85.8 g ai/ha.
